ChEMBL document CHEMBL3868595, “Plazomicin is effective in a non-human primate pneumonic plague model” (Bioorg Med Chem, 2016)

Columns and labels:
Yersinia pestis [1] = test: Antibacterial activity against Yersinia pestis Colorado 92 infected in African green monkey C2083 model assessed as bacterial burden in heart at 12.5 mg/kg, iv administered within 6 hrs post onset of sustained fever as 30 mins infusion for 5 days (reference value: 2.6 10^7CFU/g); format: functional, CO92
[2] = Toxicity in African green monkey 7653 model infected with Yersinia pestis Colorado 92 assessed as total white blood cell count at 25 mg/kg, iv administered within 6 hrs post onset of sustained fever as 30 mins infusion for 10 days (reference value: 7.5 10^3/microL); format: organism-based; settings: chlorocebus aethiops, in vivo
Yersinia pestis [3] = test: Antibacterial activity against Yersinia pestis Colorado 92 infected in African green monkey assessed as survival of monkey at 25 mg/kg, iv administered within 6 hrs post onset of sustained fever as 30 mins infusion for 5 days; format: functional; settings: CO92, iv
[4] = Toxicity in African green monkey 8067 model infected with Yersinia pestis Colorado 92 assessed as total white blood cell count at 25 mg/kg, iv administered within 6 hrs post onset of sustained fever as 30 mins infusion for 10 days (reference value: 10 10^3/microL); format: organism-based; settings: chlorocebus aethiops, in vivo
African green monkey [5] = test: Toxicity in African green monkey 7643 model infected with Yersinia pestis Colorado 92 assessed as serum alanine aminotransferase level at 25 mg/kg, iv administered within 6 hrs post onset of sustained fever as 30 mins infusion for 10 days (reference value: 53 IU/L); format: organism-based; settings: chlorocebus sabaeus, in vivo
Yersinia pestis [6] = test: Antibacterial activity against Yersinia pestis Colorado 92 infected in African green monkey B6672 model assessed as bacterial burden in kidney at 12.5 mg/kg, iv administered within 6 hrs post onset of sustained fever as 30 mins infusion for 5 days (reference value: 7.1 10^7CFU/g); format: functional, CO92
African green monkey [7] = test: Toxicity in African green monkey 8067 model infected with Yersinia pestis Colorado 92 assessed as blood urea nitrogen level at 25 mg/kg, iv administered within 6 hrs post onset of sustained fever as 30 mins infusion for 10 days (reference value: 13 mg/dl); format: organism-based; settings: chlorocebus sabaeus, in vivo
African green monkey [8] = test: Toxicity in African green monkey B6291 model infected with Yersinia pestis Colorado 92 assessed as serum lactate dehydrogenase level at 25 mg/kg, iv administered within 6 hrs post onset of sustained fever as 30 mins infusion for 10 days (reference value: 212 IU/L); format: organism-based; settings: chlorocebus sabaeus, in vivo
[9] = Toxicity in African green monkey B6291 model infected with Yersinia pestis Colorado 92 assessed as total white blood cell count at 25 mg/kg, iv administered within 6 hrs post onset of sustained fever as 30 mins infusion for 10 days (reference value: 12 10^3/microL); format: organism-based; settings: chlorocebus aethiops, in vivo
Yersinia pestis [10] = test: Antibacterial activity against Yersinia pestis Colorado 92 infected in African green monkey C2149 model assessed as bacterial burden in spleen at 6.25 mg/kg, iv administered within 6 hrs post onset of sustained fever as 30 mins infusion for 5 days (reference value: 1.6 10^9CFU/g); format: functional, CO92
Yersinia pestis [11] = test: Antibacterial activity against Yersinia pestis Colorado 92 infected in African green monkey B6106 model assessed as bacterial burden in blood at 25 mg/kg, iv administered within 6 hrs post onset of sustained fever as 30 mins infusion for 5 days (reference value: 1.2 10^7CFU/ml); format: functional, CO92
African green monkey [12] = test: Toxicity in African green monkey B6140 model infected with Yersinia pestis Colorado 92 assessed as serum alanine aminotransferase level at 25 mg/kg, iv administered within 6 hrs post onset of sustained fever as 30 mins infusion for 10 days (reference value: 180 IU/L); format: organism-based; settings: chlorocebus sabaeus, in vivo
Yersinia pestis [13] = test: Antibacterial activity against Yersinia pestis Colorado 92 infected in African green monkey B6872 model assessed as bacterial burden in lung at 25 mg/kg, iv administered within 6 hrs post onset of sustained fever as 30 mins infusion for 5 days (reference value: 7.7 10^8CFU/g); format: functional, organism-based; settings: CO92
Yersinia pestis [14] = test: (§1) Antibacterial activity against Yersinia pestis Colorado 92 infected in African green monkey B6127 model assessed as bacterial burden in blood at 25 mg/kg, iv administered within 6 hrs post onset of sustained fever as 30 mins infusion for 10 days (reference value: 1.2 10^7CFU/ml); format: functional, organism-based; settings: CO92
Yersinia pestis [15] = test: as §1, with “tracheobronchial lymph nodes” for “blood”, “7.7 10^9CFU/g)” for “1.2 10^7CFU/ml)”; format: functional, organism-based; settings: CO92, Lymph node
Yersinia pestis [16] = test: Antibacterial activity against Yersinia pestis Colorado 92 infected in African green monkey B6889 model assessed as bacterial burden in kidney at 6.25 mg/kg, iv administered within 6 hrs post onset of sustained fever as 30 mins infusion for 5 days (reference value: 7.1 10^7CFU/g); format: functional, CO92
Yersinia pestis [17] = test: Antibacterial activity against Yersinia pestis Colorado 92 infected in African green monkey B6988 model assessed as bacterial burden in blood at 6.25 mg/kg, iv administered within 6 hrs post onset of sustained fever as 30 mins infusion for 5 days (reference value: 1.2 10^7CFU/ml); format: functional, CO92
African green monkey [18] = test: Toxicity in African green monkey 7643 model infected with Yersinia pestis Colorado 92 assessed as serum gamma glutamyl-transferase level at 25 mg/kg, iv administered within 6 hrs post onset of sustained fever as 30 mins infusion for 10 days (reference value: 44 IU/L); format: organism-based; settings: chlorocebus sabaeus, in vivo
[19] = Toxicity in African green monkey 7337 model infected with Yersinia pestis Colorado 92 assessed as total white blood cell count at 25 mg/kg, iv administered within 6 hrs post onset of sustained fever as 30 mins infusion for 10 days (reference value: 7.5 10^3/microL); format: organism-based; settings: chlorocebus aethiops, in vivo
[20] = Toxicity in African green monkey 7643 model infected with Yersinia pestis Colorado 92 assessed as total white blood cell count at 25 mg/kg, iv administered within 6 hrs post onset of sustained fever as 30 mins infusion for 10 days (reference value: 6.1 10^3/microL); format: organism-based; settings: chlorocebus aethiops, in vivo
Yersinia pestis [21] = test: Antibacterial activity against Yersinia pestis Colorado 92 infected in African green monkey B6469 model assessed as bacterial burden in kidney at 25 mg/kg, iv administered within 6 hrs post onset of sustained fever as 30 mins infusion for 5 days (reference value: 7.1 10^7CFU/g); format: functional, organism-based; settings: CO92
African green monkey [22] = test: Toxicity in African green monkey 7337 model infected with Yersinia pestis Colorado 92 assessed as serum lactate dehydrogenase level at 25 mg/kg, iv administered within 6 hrs post onset of sustained fever as 30 mins infusion for 10 days (reference value: 310 IU/L); format: organism-based; settings: chlorocebus sabaeus, in vivo
Yersinia pestis [23] = test: Antibacterial activity against Yersinia pestis Colorado 92 infected in African green monkey 8047 model assessed as bacterial burden in kidney at 6.25 mg/kg, iv administered within 6 hrs post onset of sustained fever as 30 mins infusion for 10 days (reference value: 7.1 10^7CFU/g); format: functional, CO92
Yersinia pestis [24] = test: Antibacterial activity against Yersinia pestis Colorado 92 infected in African green monkey B6672 model assessed as bacterial burden in lung at 12.5 mg/kg, iv administered within 6 hrs post onset of sustained fever as 30 mins infusion for 5 days (reference value: 7.7 10^8CFU/g); format: functional, CO92
[25] = Cmax in African green monkey blood at 35 mg/kg administered as iv infusion twice daily for 7 consecutive days measured on day 7 by LC-MS/MS analysis; format: ADME, organism-based; set-up: dose 35 mg/kg, route intravenous; settings: chlorocebus aethiops
African green monkey [26] = test: Toxicity in African green monkey B6408 model infected with Yersinia pestis Colorado 92 assessed as serum creatinine level at 25 mg/kg, iv administered within 6 hrs post onset of sustained fever as 30 mins infusion for 10 days (reference value: 0.5 mg/dl); format: organism-based; settings: chlorocebus sabaeus, in vivo

For `CN[C@@H]1[C@@H](O)[C@@H](O[C@@H]2[C@@H](O)[C@H](O[C@H]3OC(CNCCO)=CC[C@H]3N)[C@@H](N)C[C@H]2NC(=O)[C@@H](O)CCN)OC[C@]1(C)O` [PLAZOMICIN], the Activity (Yersinia pestis [1]) was 1.5 ×10⁷ CFU/g, the Activity [2] was 5.8 ×10³ /uL and the survival at 25 mg/kg (Yersinia pestis [3]) was 69%. The Activity [4] was 9.4 ×10³ /uL, the Activity (African green monkey [5]) was 43 IU/L and the Activity (Yersinia pestis [6]) was 25 CFU/g. For the same molecule, the Activity (African green monkey [7]) was 21 mg/dL, the Activity (African green monkey [8]) was 259 IU/L and the Activity [9] was 5.9 ×10³ /uL. The Activity (Yersinia pestis [10]) was 30 CFU/g, the Activity (Yersinia pestis [11]) was 40 CFU/ml and the Activity (African green monkey [12]) was 71 IU/L. For the same molecule, the Activity (Yersinia pestis [13]) was “Below limit of detection”, the Activity (Yersinia pestis [14]) was “Below limit of detection” and the Activity (Yersinia pestis [15]) was “Below limit of detection”. It also gave an Activity (Yersinia pestis [16]) of 1.1 ×10⁶ CFU/g, an Activity (Yersinia pestis [17]) of 11 CFU/ml and an Activity (African green monkey [18]) of 35 IU/L. For the same molecule, the Activity [19] was 5 ×10³ /uL, the Activity [20] was 5.7 ×10³ /uL and the Activity (Yersinia pestis [21]) was “Below limit of detection”. The Activity (African green monkey [22]) was 469 IU/L, the Activity (Yersinia pestis [23]) was 32 CFU/g and the Activity (Yersinia pestis [24]) was 9.2 ×10⁹ CFU/g. It also gave a Cmax [25] of 185 µg/mL and an Activity (African green monkey [26]) of 0.4 mg/dL.
